From article PMC8119466, “A screen of FDA-approved drugs identifies inhibitors of protein tyrosine phosphatase 4A3 (PTP4A3 or PRL-3)” (Scientific Reports, 2021)
Where a name gives a salt, the structure may show the parent alone. Read-outs that look alike come from different tables or passages of the source.

Assays:
Type in all cases: biochemical
[1] = target: T1, recombinant PRL-3 (Homo sapiens, UniProt O75365); assay: In vitro phosphatase assay (DiFMUP hydrolysis), PRL-3; conditions: for IC50: DiFMUP at KM, read-out: Calculated IC50, PRL-3 phosphatase activity
T1 construct: 6xHis (N, cleaved yes); made in house; host or cells: E. coli One Shot BL21 Star

[2] = target: T2, recombinant PRL-2 (Homo sapiens, UniProt Q12974); assay: In vitro phosphatase assay (DiFMUP hydrolysis), PRL-2; conditions: for IC50: DiFMUP at KM, read-out: Calculated IC50, PRL-2 phosphatase activity;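 as to all read-outs here: PRL-2 activity read as DiFMUP hydrolysis after 20 min at room temperature with drug, enzyme first pre-reduced at 4 °C for 20 min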
T2 construct: 6xHis (N, cleaved yes); made in house; host or cells: E. coli One Shot BL21 Star
T2 sequence (Q12974 1-167): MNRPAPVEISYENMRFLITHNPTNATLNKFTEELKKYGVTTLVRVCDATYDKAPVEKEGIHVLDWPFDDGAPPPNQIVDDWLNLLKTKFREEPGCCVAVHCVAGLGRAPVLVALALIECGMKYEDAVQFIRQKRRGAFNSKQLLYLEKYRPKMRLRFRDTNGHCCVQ

[3] = target: T3, recombinant PRL-1 (Homo sapiens, UniProt Q93096); assay: In vitro phosphatase assay (DiFMUP hydrolysis), PRL-1; conditions: for IC50: DiFMUP at KM, read-out: Calculated IC50, PRL-1 phosphatase activity
T3 construct: 6xHis (N, cleaved yes); made in house; host or cells: E. coli One Shot BL21 Star
T3 sequence (Q93096 1-173): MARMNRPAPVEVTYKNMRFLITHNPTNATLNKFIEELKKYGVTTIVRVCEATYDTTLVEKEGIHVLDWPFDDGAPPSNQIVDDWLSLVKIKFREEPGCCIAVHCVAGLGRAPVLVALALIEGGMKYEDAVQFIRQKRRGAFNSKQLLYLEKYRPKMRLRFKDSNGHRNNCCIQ

[4] = FDA-approved drug screen, compared to DMSO
[5] = FDA-approved drug screen, compared to DMSO, listed as Eltrombopag

T1 sequence (O75365 whole entry): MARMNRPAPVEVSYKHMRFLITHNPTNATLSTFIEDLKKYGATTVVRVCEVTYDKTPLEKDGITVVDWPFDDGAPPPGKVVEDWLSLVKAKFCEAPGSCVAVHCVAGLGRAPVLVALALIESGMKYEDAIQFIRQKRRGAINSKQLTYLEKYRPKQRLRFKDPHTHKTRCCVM

Structure (SMILES)	% Phosphatase Activity (compared to DMSO) PRL-3 [1, 4] [%]	% Phosphatase Activity (compared to DMSO) PRL-2 [2, 4] [%]	% Phosphatase Activity (compared to DMSO) PRL-1 [3, 4] [%]	further results
CCCCOc1ccc(C(=O)CCN2CCCCC2)cc1 [Dyclonine HCl]	102	103	91	
CC(=O)[C@H]1CC[C@H]2[C@@H]3C=CC4=CC(=O)CC[C@@]4(C)[C@@H]3CC[C@]12C [Dydrogesterone]	67	98	91	
Cn1c(=O)c2c(ncn2CC(O)CO)n(C)c1=O (stereo not drawn) [Dyphylline]	75	103	100	
CCN(c1cc(-c2ccc(CN3CCOCC3)cc2)cc(C(=O)NCc2c(C)cc(C)[nH]c2=O)c1C)C1CCOCC1 [EPZ-6438]	95	77	85	
NC(=O)C1CCCc2c1[nH]c1ccc(Cl)cc21 (stereo not drawn) [EX 527 (Selisistat)]	84	106	99	
Clc1ccc(COC(Cn2ccnc2)c2ccc(Cl)cc2Cl)cc1 (stereo not drawn) [Econazole nitrate]	93	103	107	
CC1=NN(c2ccccc2)C(=O)C1 [Edaravone]	72	82	90	
CN1CCc2nc(C(=O)N[C@@H]3C[C@@H](C(=O)N(C)C)CC[C@@H]3NC(=O)C(=O)Nc3ccc(Cl)cn3)sc2C1 [Edoxaban]	106	99	110	
O=C1Nc2ccc(Cl)cc2[C@@](C#CC2CC2)(C(F)(F)F)O1 [Efavirenz]	97	72	87	
Cl.NCCCC(N)(C(=O)O)C(F)F.O (stereo not drawn) [Eflornithine hydrochloride hydrate]	103	84	91	
COc1cc2c(cc1OC)CN(CCc1ccc(NC(=O)c3cccc4c(=O)c5cccc(OC)c5[nH]c34)cc1)CC2 [Elacridar (GF120918)]	100	104	106	
CN1CCC[C@@H]1Cc1c[nH]c2ccc(CCS(=O)(=O)c3ccccc3)cc12 [Eletriptan HBr]	92	121	109	
CCCCCCCC(=O)N[C@H](CN1CCCC1)[C@H](O)c1ccc2c(c1)OCCO2.O=C(O)C(O)C(O)C(=O)O [Eliglustat Tartrate]	96	91	96	
O=c1oc2c(O)c(O)cc3c(=O)oc4c(O)c(O)cc1c4c23 [Ellagic acid]	68	89	98	
CC1=NN(c2ccc(C)c(C)c2)C(=O)/C1=N\Nc1cccc(-c2cccc(C(=O)O)c2)c1O [Eltrombopag Olamine]	35	66	56	
CC1=NN(c2ccc(C)c(C)c2)C(=O)/C1=N\Nc1cccc(-c2cccc(C(=O)O)c2)c1O [Eltromobag Olamine, reference compound]				IC50 ([1]; […] protein): 27 ± 4 µM; IC50 ([2]; […] protein): 166 ± 22 µM; IC50 ([3]; […] protein): 61 ± 15 µM
CC1=NN(c2ccc(C)c(C)c2)C(=O)/C1=N\Nc1cccc(-c2cccc(C(=O)O)c2)c1O [Eltromobag, reference compound]				IC50 ([1]; 2.5 µM protein): 26 ± 11 µM; % Phosphatase Activity (compared to DMSO) PRL-3 [1, 5]: 66%; IC50 ([2]; 2.5 µM protein): > 100 µM; % Phosphatase Activity (compared to DMSO) PRL-2 [2, 5]: 68%; IC50 ([3]; 2.5 µM protein): 56 ± 10 µM; % Phosphatase Activity (compared to DMSO) PRL-1 [3, 5]: 57%
COc1cc2c(cc1Cc1cccc(Cl)c1F)c(=O)c(C(=O)O)cn2[C@H](CO)C(C)C [Elvitegravir (GS-9137, JTK-303)]	81	84	82	
CCCCCCCCCCCC1=C(O)C(=O)C=C(O)C1=O [Embelin, reference compound]	28	58	40	IC50 ([1]; 2.5 µM protein): 52 ± 9 µM; IC50 ([2]; 2.5 µM protein): 124 ± 60 µM; IC50 ([3]; 2.5 µM protein): 114 ± 16 µM
OC[C@H]1O[C@@H](c2ccc(Cl)c(Cc3ccc(O[C@H]4CCOC4)cc3)c2)[C@H](O)[C@@H](O)[C@@H]1O [Empagliflozin (BI 10773)]	97	93	109	
C[C@H](NC(=O)C(=O)Nc1ccccc1C(C)(C)C)C(=O)N[C@@H](CC(=O)O)C(=O)COc1c(F)c(F)cc(F)c1F [Emricasan]	95	72	95	
Nc1nc(=O)n([C@@H]2CS[C@H](CO)O2)cc1F [Emtricitabine]				% Phosphatase Activity (compared to DMSO) PRL-3 [1]: 75%; % Phosphatase Activity (compared to DMSO) PRL-2 [2]: 97%; % Phosphatase Activity (compared to DMSO) PRL-1 [3]: 104%
CCOC(=O)[C@H](CCc1ccccc1)N[C@@H](C)C(=O)N1CCC[C@H]1C(=O)O [Enalapril Maleate]	93	92	83	
C[C@H](N[C@@H](CCc1ccccc1)C(=O)O)C(=O)N1CCC[C@H]1C(=O)O.O.O [Enalaprilat Dihydrate]	78	102	102	
CCN1CCN(c2cc3c(cc2F)c(=O)c(C(=O)O)cn3C2CC2)CC1 [Enrofloxacin]	118	176	152	
CCN(CC)C(=O)/C(C#N)=C/c1cc(O)c(O)c([N+](=O)[O-])c1 [Entacapone]	75	87	94	
C=C1[C@H](CO)[C@@H](O)C[C@@H]1n1cnc2c(=O)[nH]c(N)nc21 [Entecavir Hydrate]	71	92	102	
Nc1ccccc1NC(=O)c1ccc(CNC(=O)OCc2cccnc2)cc1 [Entinostat (MS-275)]	80	91	91	
CN1CCN(c2ccc(C(=O)Nc3n[nH]c4ccc(Cc5cc(F)cc(F)c5)cc34)c(NC3CCOCC3)c2)CC1 [Entrectinib (RXDX-101)]	180	282	344	
